Laboratory results reported in publication PMC4869175, “Evidence that phytochrome functions as a protein kinase in plant light signalling” (Nature Communications, 2016).
Blank lines part the entries; values can stand above or below the molecule they belong to.

What was measured:
[1] = biological target: T1, photosensory core of AsphyA (66-610) (Avena sativa, UniProt P06593); test: Photoaffinity labelling of the photosensory core with 8-azido-ATP and competition by unlabeled ATP; format: binding; details: 10 μM 8-azido-ATP
T1 construct: the PAS-GAF-PHY photosensory core (66–610aa) were also cloned into pPIC3.5K; made in house; host or cells: Pichia pastoris GS115
T1 sequence (P06593 66-610): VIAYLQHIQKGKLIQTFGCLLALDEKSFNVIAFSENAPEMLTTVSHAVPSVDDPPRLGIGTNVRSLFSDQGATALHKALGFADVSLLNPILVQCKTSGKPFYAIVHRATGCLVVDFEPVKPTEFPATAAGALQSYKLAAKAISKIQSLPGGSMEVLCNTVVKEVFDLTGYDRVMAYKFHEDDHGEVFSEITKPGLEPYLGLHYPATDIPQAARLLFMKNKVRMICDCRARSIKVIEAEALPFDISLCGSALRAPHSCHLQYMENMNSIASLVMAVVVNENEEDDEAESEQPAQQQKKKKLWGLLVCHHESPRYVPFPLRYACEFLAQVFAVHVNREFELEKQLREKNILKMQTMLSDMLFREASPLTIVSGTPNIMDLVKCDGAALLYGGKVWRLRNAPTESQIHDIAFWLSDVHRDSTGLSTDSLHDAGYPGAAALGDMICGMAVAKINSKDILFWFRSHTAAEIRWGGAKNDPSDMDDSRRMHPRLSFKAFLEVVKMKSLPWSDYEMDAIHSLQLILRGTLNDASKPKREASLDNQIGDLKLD
Protocol: To investigate ATP-binding to AsphyA proteins, photoaffinity labelling experiments were carried out using 8-N3-ATP-biotin-long chain-hydrazone (8-azido-ATP), which were purchased from Affinity Labeling Technologies, Inc. Purified phytochrome proteins (1.0 μg) were pre-incubated for 30 min on ice in 50 μl of photoaffinity labelling buffer (20 mM Tris-HCl, pH 7.0, 2 mM EDTA, 2 mM MgCl2 and 150 μM ATP), and then 8-azido-ATP was applied with indicated concentrations. After incubation for 5 more min on ice, ultraviolet light at 254 nm was then irradiated for 90 s using a hand-held ultraviolet lamp at 4 cm from the surface of the reaction mixtures. Immediately after photoaffinity labelling, reactions were stopped by adding SDS sample buffer, and the 8-azido-ATP-labelled phytochromes were detected with 1:2,000 avidin-HRP (A-115, Boston Biochem). After development, the images were scanned and opened by ImageJ, a Java-based image-processing software, to quantitate the photoaffinity labelling with azido-ATP analogues. Background signal was subtracted before normalization. […]
Supplementary Figure 11. […] 8-azido-ATP labeled proteins were then detected using avidin-HRP. […] The band intensities were quantified using ImageJ software, and the percentages of 8-azido-ATP labeling were normalized to the 66-610 protein signals. […]

[2] = biological target: T2, PAS-GAF-PHY photosensory core of AsphyA (66-610aa) (Avena sativa, UniProt P06593 66-610, phycocyanobilin chromophore assembled (chromophore-binding site C322)); test: pull-down; GST/strep-fused interacting protein (1.0 μg) held on glutathione resin, phytochrome (1.0 μg) in solution, Pr and Pfr forms both tested; 60 min at 4 °C in pull-down buffer (100 mM Tris-HCl pH 7.8, 1 mM EDTA, 150 mM NaCl, 100 μg/ml BSA); western blot with oat22 and anti-GST; details: both partners purified
T2 construct: Avena sativa phytochrome A, residues 66-610 (PAS-GAF-PHY photosensory core); also called the photosensory core; source: phycocyanobilin added in vitro
T2 sequence (looked up): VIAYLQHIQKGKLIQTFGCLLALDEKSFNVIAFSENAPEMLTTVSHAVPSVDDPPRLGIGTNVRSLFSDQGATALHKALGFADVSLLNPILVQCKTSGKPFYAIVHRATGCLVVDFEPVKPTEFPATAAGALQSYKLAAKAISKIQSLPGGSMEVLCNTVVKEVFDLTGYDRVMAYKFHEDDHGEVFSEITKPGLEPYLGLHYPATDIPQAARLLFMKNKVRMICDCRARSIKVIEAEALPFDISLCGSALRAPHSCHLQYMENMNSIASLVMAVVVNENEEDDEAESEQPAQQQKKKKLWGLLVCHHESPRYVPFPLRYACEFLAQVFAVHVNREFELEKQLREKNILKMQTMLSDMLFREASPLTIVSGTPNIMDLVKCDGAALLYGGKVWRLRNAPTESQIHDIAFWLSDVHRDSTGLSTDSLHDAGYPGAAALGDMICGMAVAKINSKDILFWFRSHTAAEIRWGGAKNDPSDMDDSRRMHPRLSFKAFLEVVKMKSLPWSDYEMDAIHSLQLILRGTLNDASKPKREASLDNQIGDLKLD

Molecule: 8-N3-ATP-biotin-long chain-hydrazone [8-azido-ATP]
photoaffinity labelling of the photosensory core ([1]; UV 90 s, Pr and Pfr forms): labelled

Molecule: Nc1ncnc2c1ncn2[C@@H]1O[C@H](COP(=O)(O)OP(=O)(O)OP(=O)(O)O)[C@@H](O)[C@H]1O [ATP]
concentration of unlabeled ATP that inhibited 8-azido-ATP photoaffinity labeling ([1]; unlabeled ATP 0-30 mM): approximately 7.5 mM

binding result [2]: binds
B1: GST/strep-fused PIF3 (natural protein, UniProt O80536 1-524, looked up)
chain: MPLFELFRLTKAKLESAQDRNPSPPVDEVVELVWENGQISTQSQSSRSRNIPPPQANSSRAREIGNGSKTTMVDEIPMSVPSLMTGLSQDDDFVPWLNHHPSLDGYCSDFLRDVSSPVTVNEQESDMAVNQTAFPLFQRRKDGNESAPAASSSQYNGFQSHSLYGSDRARDLPSQQTNPDRFTQTQEPLITSNKPSLVNFSHFLRPATFAKTTNNNLHDTKEKSPQSPPNVFQTRVLGAKDSEDKVLNESVASATPKDNQKACLISEDSCRKDQESEKAVVCSSVGSGNSLDGPSESPSLSLKRKHSNIQDIDCHSEDVEEESGDGRKEAGPSRTGLGSKRSRSAEVHNLSERRRRDRINEKMRALQELIPNCNKVDKASMLDEAIEYLKSLQLQVQIMSMASGYYLPPAVMFPPGMGHYPAAAAAMAMGMGMPYAMGLPDLSRGGSSVNHGPQFQVSGMQQQPVAMGIPRVSGGGIFAGSSTIGNGSTRDLSGSKDQTTTNNNSNLKPIKRKQGSSDQFCGSS
notes: Probably Arabidopsis PIF3, as PIF1 and PIF4 are called Arabidopsis; not shown: GST, N-terminal, kept
